Experimental data taken from patent US20180092866A1, “SUBSTITUTED N-([1,1'-BIPHENYL]-3-YL)-[1,1'-BIPHENYL]-3-CARBOXAMIDE ANALOGS AS INHIBITORS FOR BETA-CATENIN/B-CELL LYMPHOMA 9 INTERACTIONS” (University of Utah Research Foundation, priority 2015, published 2018).
Counter-ions that a name gives are not always drawn.

Tests used:
[1] = target: T1, β-catenin/E-cadherin PPIs (Homo sapiens, UniProt P35222); test: AlphaScreen selectivity assay, β-catenin/BCL9 versus β-catenin/E-cadherin; assay type: binding
T1 construct: β-Catenin or its mutants (residues 138-686) was cloned into a pET-28b vector; made in house; host or cells: E. coli BL21 DE3
T1 sequence (P35222 138-686): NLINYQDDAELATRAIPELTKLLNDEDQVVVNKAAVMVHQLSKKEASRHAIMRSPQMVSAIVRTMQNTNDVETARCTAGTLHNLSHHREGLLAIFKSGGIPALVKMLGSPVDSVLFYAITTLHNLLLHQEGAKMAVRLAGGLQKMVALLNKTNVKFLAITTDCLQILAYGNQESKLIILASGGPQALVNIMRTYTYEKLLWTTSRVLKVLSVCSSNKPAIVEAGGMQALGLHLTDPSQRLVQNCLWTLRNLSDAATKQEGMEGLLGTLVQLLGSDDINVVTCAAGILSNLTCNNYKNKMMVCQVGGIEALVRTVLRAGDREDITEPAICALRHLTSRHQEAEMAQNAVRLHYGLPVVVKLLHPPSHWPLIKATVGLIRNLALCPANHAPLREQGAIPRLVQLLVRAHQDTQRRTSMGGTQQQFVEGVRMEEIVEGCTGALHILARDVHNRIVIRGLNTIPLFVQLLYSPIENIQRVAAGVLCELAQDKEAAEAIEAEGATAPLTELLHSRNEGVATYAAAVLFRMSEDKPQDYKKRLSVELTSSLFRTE
From the text: Human BCL9 (residues 350-375), N-terminally biotinylated human BCL9 (residues 350-375), N-terminally fluorescein-labeled human BCL9 (residues 350-375), and N-terminally biotinylated human E-cadherin (residues 824-877) were synthesized by InnoPep Inc. (San Diego, Calif., www.innopep.com). All synthesized peptides were purified by HPLC with purity >95%. The structures were validated by LC/MS. The sequences are shown in Table 2 (Ahx, 6-aminohexanoic acid).
The purity of the wild-type and mutant β-catenin proteins was all greater than 95% as determined by the SDS-PAGE gel analysis. Both the wild-type and mutant β-catenin proteins are stable under the testing conditions. Native non-denaturing gel electrophoresis was performed to confirm the homogeneity of the purified proteins. Experiments were performed in white opaque 384-well plates from PerkinElmer, and the samples were read on a Synergy 2 plate reader (Biotek) with a sensitivity setting of 200 using AlphaScreen protocol with excitation at 680 nm and emission at 570 nm. All dilutions were made in 1×assay buffer containing 25 mM HEPES (pH=7.0), 100 mM NaCl, 0.01% Triton X-100, and 0.1% BSA. […] The IC50 value was determined by nonlinear least-square analysis of GraphPad Prism 5.0. […]

[2] = target: T2, β-catenin/BCL9 protein-protein interactions (Homo sapiens, UniProt P35222); test: AlphaScreen competitive inhibition assay, wild-type β-catenin/BCL9; assay type: binding; settings: for Ki: wild-type β-catenin (residues 138-686)/biotinylated BCL9 26-mer, Ki derived from IC50, mean ± SD
T2 construct: C-terminally His6-tagged wild-type or mutant β-catenin (residues 138-686) proteins; made in house; host or cells: E. coli BL21 DE3
T2 sequence (P35222 138-686): T1 sequence (P35222 138-686)
Protocol: The purity of the wild-type and mutant β-catenin proteins was all greater than 95% as determined by the SDS-PAGE gel analysis. Both the wild-type and mutant β-catenin proteins are stable under the testing conditions. Native non-denaturing gel electrophoresis was performed to confirm the homogeneity of the purified proteins. Experiments were performed in white opaque 384-well plates from PerkinElmer, and the samples were read on a Synergy 2 plate reader (Biotek) with a sensitivity setting of 200 using AlphaScreen protocol with excitation at 680 nm and emission at 570 nm. All dilutions were made in 1×assay buffer containing 25 mM HEPES (pH=7.0), 100 mM NaCl, 0.01% Triton X-100, and 0.1% BSA. In the AlphaScreen competitive inhibition assay, 40 nM of C-terminally His6-tagged wild-type or mutant β-catenin (residues 138-686) proteins was incubated with 5 nM of N-terminal biotinylated human BCL9 26-mer (residues 350-375) for 30 min at 4° C., and then different concentrations of the tested inhibitors in the assay buffer were added to make a final volume of 20 μL. The mixture was incubated at 4° C. for 2 h. The donor and acceptor beads were added to a final concentration of 10 μg/mL in 25 μL of assay buffer. The mixture was incubated at 4° C. for 1 h. The IC50 value was determined by nonlinear least-square analysis of GraphPad Prism 5.0. […] The Ki values were derived from the IC50 values by a reported method (Nikolovska-Coleska et al. (2004) Anal. Biochem. […]: 261-273). Experiments were performed in triplicate and carried out in the presence of 1% DMSO.

Row | Compound | selectivity for β-catenin/BCL9 over β-catenin/E-cadherin PPIs (in words) [1] | relative inhibitory potency for β-catenin/BCL9 PPIs (in words) ([2]; AlphaScreen assay, comparison with named compound) | Ki [2] [µM]
1 | O=C(NCCCC(=O)N1CCNCC1)c1ccc(-c2cc(C(=O)Nc3ccc(O[C@H]4CCNC4)c(-c4ccc(F)cc4)c3)ccc2O[C@H]2CCNC2)cc1 [Compound 29, 4-(4-(5′-((4′-fluoro-6-((S)-pyrrolidin-1-ium-3-yloxy)-[1,1′-biphenyl]-3-yl)carbamoyl)-2′-((S)-pyrrolidin-1-ium-3-yloxy)-[1,1′-biphenyl]-4-ylcarboxamido)butanoyl) piperazin-1-ium] | much higher selectivity | comparable inhibitory potency for β-catenin/BCL9 PPIs as 21 | 2.1 ± 0.432
2 | O=C(Nc1ccc(O[C@H]2CCNC2)c(-c2cccc(-c3nn[nH]n3)c2)c1)c1ccc(O[C@H]2CCNC2)c(-c2ccc(F)c(F)c2)c1 [Compound 91k, 3′,4′-Difluoro-6-((S)-pyrrolidin-3-yloxy)-N-(6-((S)-pyrrolidin-3-yloxy)-3′-(2h-tetrazol-5-yl)-[1,1′-biphenyl]-3-yl)-[1,1′-biphenyl]-3-carboxamide dihydrochloride] | – | – | 3.91 ± 0.734
3 | O=C(Nc1ccc(O[C@H]2CCNC2)c(-c2ccc(-c3nn[nH]n3)cc2)c1)c1ccc(O[C@H]2CCNC2)c(-c2ccc(F)c(F)c2)c1 [Compound 91l, 3′,4′-Difluoro-6-((S)-pyrrolidin-3-yloxy)-N-(6-((S)-pyrrolidin-3-yloxy)-4′-(2h-tetrazol-5-yl)-[1,1′-biphenyl]-3-yl)-[1,1′-biphenyl]-3-carboxamide dihydrochloride] | – | – | 19.9 ± 4.87
4 | O=C(Nc1ccc(O[C@H]2CCNC2)c(-c2ccc(F)nc2)c1)c1ccc(O[C@H]2CCNC2)c(-c2ccc(F)c(F)c2)c1 [Compound 91m, 3′,4′-Difluoro-N-(3-(6-fluoropyridin-3-yl)-4-((S)-pyrrolidin-3-yloxy)phenyl)-6-((S)-pyrrolidin-3-yloxy)-[1,1′-biphenyl]-3-carboxamide dihydrochloride] | – | – | 124 ± 10.4
5 | O=C(Nc1ccc(O[C@H]2CCNC2)c(-c2ccc(F)cc2)c1)c1ccc(O[C@H]2CCNC2)c(-c2ccc(F)nc2)c1 [Compound 95, N-(4′-fluoro-6-((S)-pyrrolidin-3-yloxy)-[1,1′-biphenyl]-3-yl)-3-(6-fluoropyridin-3-yl)-4-((S)-pyrrolidin-3-yloxy)benzamide dihydrochloride] | – | – | 244 ± 13.3
6 | O=C(Nc1ccc(O[C@H]2CCNC2)c(-c2ccc(F)cc2)c1)c1ccc(O[C@H]2CCNC2)c(-c2ccc3cc(F)ccc3c2)c1 [Compound 96] | – | – | 7.17 ± 1.3
7 | O=C(Nc1ccc(O[C@H]2CCNC2)c(-c2ccc(F)cc2)c1)c1ccc(O[C@H]2CCNC2)c(-c2ccc3ccsc3c2)c1 [Compound 97] | – | – | 9.5 ± 1.12
8 | O=C(O)c1cccc(-c2cc(NC(=O)c3ccc(O[C@H]4CCNC4)c(-c4ccc(F)c(F)c4)c3)ccc2O[C@H]2CCNC2)c1 [Compound 98] | – | – | 180 ± 4.84
9 | O=C(O)c1ccc(-c2cc(NC(=O)c3ccc(O[C@H]4CCNC4)c(-c4ccc(F)c(F)c4)c3)ccc2O[C@H]2CCNC2)cc1 [Compound 99] | – | – | 156 ± 3.96
10 | CS(=O)(=O)Nc1cccc(C#Cc2cc(NC(=O)c3ccc(O[C@H]4CCNC4)c(-c4ccc(F)c(F)c4)c3)ccc2O[C@H]2CCNC2)c1 [Compound 101] | – | – | 56.2 ± 7.64
11 | CS(=O)(=O)Nc1cccc(-c2cc(NC(=O)c3ccc(O[C@H]4CCNC4)c(-c4ccc(F)c(F)c4)c3)ccc2O[C@H]2CCNC2)c1 [Compound 102] | – | – | 126 ± 10.3
12 | CC(=O)Nc1cccc(-c2cc(NC(=O)c3ccc(O[C@H]4CCNC4)c(-c4ccc(F)c(F)c4)c3)ccc2O[C@H]2CCNC2)c1 [Compound 103] | – | – | 96.4 ± 9.78
